Assay results taken from ChEMBL document CHEMBL4732090, “Preparation of new 1,3-dibenzyl tetrahydropyridinylidene ammonium salts and their antimicrobial and anticellular activities” (Eur J Med Chem, 2021).

Tests used:
Pseudomonas aeruginosa = test: Antibacterial activity against Pseudomonas aeruginosa ATCC 27853 assessed as diameter of inhibition zone at 10 mg/ml by disk diffusion assay; format: functional; conditions: read-out: DIZ
[1] = test system: Staphylococcus epidermidis; test: Antibacterial activity against Staphylococcus epidermis ATCC 12228 assessed as diameter of inhibition zone at 10 mg/ml by disk diffusion assay; format: functional; conditions: read-out: DIZ
Plasmodium falciparum [2] = test: Antiplasmodial activity against chloroquine and pyrimethamine resistant Plasmodium falciparum K1 strain; format: functional, organism-based
L6 = test: Cytotoxicity against rat L6 cells after 70 hrs by Alamar blue assay; format: cell-based; conditions: L6, 70 h
Plasmodium falciparum [3] = test: Antiplasmodial activity against Plasmodium falciparum NF54 erythrocytic stages assessed as reduction in [3H]hypoxanthine incorporation measured after 48 hrs by liquid scintillation counting method; format: functional, organism-based
[4] = Selectivity index, ratio of IC50 for rat L6 cells to IC50 for Plasmodium falciparum NF54; format: toxicity; conditions: read-out: Ratio IC50
Escherichia coli = test: Antibacterial activity against Escherichia coli ATCC 25922 assessed as diameter of inhibition zone at 10 mg/ml by disk diffusion assay; format: functional; conditions: read-out: DIZ
[5] = Selectivity index, ratio of IC50 for rat L6 cells to IC50 for Trypanosoma brucei rhodesiense STIB900; format: toxicity; conditions: read-out: Ratio IC50
Candida albicans = test: Antifungal activity against Candida albicans ATCC 90028 assessed as diameter of inhibition zone at 10 mg/ml by disk diffusion assay; format: functional; conditions: read-out: DIZ
[6] = test system: Trypanosoma brucei rhodesiense; test: Trypanocidal activity against Trypanosoma brucei rhodesiense STIB900 incubated for 70 hrs by Alamar blue assay; format: functional, organism-based; conditions: STIB900, 70 h
Staphylococcus aureus = test: Antibacterial activity against Staphylococcus aureus ATCC 29213 assessed as diameter of inhibition zone at 10 mg/ml by disk diffusion assay; format: functional; conditions: read-out: DIZ
[7] = Selectivity index, ratio of IC50 for rat L6 cells to IC50 for chloroquine and pyrimethamine resistant Plasmodium falciparum K1; format: toxicity; conditions: read-out: Ratio IC50
HCT-116 = test: Cytotoxicity against human HCT-116 cells assessed as inhibition of cell growth at 50 uM after 72 hrs by XTT assay relative to control; format: functional
U-251 = test: Cytotoxicity against human U-251 cells assessed as inhibition of cell growth at 50 uM after 72 hrs by XTT assay relative to control; format: functional

SMILES	zone of inhibition at 10000 µg/mL (Pseudomonas aeruginosa) [mm]	zone of inhibition at 10000 µg/mL [1] [mm]	IC50 (Plasmodium falciparum [2]) [nM]	IC50 (L6; read-out: IC50) [nM]	IC50 (Plasmodium falciparum [3]) [nM]	selectivity ratio [4]	zone of inhibition at 10000 µg/mL (Escherichia coli) [mm]	selectivity ratio [5]	zone of inhibition at 10000 µg/mL (Candida albicans) [mm]	IC50 [6] [nM]	zone of inhibition at 10000 µg/mL (Staphylococcus aureus) [mm]	selectivity ratio [7]	inhibition at 50 µM (HCT-116) [%]	inhibition at 50 µM (U-251) [%]	IC50 (L6) [nM]
CC1(C)C(Cc2ccc(C#N)cc2)C(=[N+]2CCCC2)C=CN1Cc1ccccc1 (stereo not given)	5	12	120	> 215000	17	> 12700	8	> 19.6	0	11000	14	> 1790			
CC1(C)S[C@@H]2[C@H](NC(=O)[C@H](N)c3ccccc3)C(=O)N2[C@H]1C(=O)O [AMPICILLIN]	0	45					15		0						
CC1(C)C(Cc2c(Cl)cccc2Cl)C(=[N+]2CCCC2)C=CN1Cc1c(Cl)cccc1Cl (racemic)	6	34		910	38	23.9	14	37.9	25	24	23		100	100	
CC1(C)C(Cc2ccccc2C(F)(F)F)C(=[N+]2CCCC2)C=CN1Cc1ccccc1 (racemic)	0	22		77600	85	912	13	776	10	100	23				
CCN(CC)CCCC(C)Nc1ccnc2cc(Cl)ccc12 (stereo not given) [CHLOROQUINE]				117000											
CC1(C)C(Cc2ccc(Cl)cc2Cl)C(=[N+]2CCCC2)C=CN1Cc1ccccc1 (racemic)	0	26		26100	18	1450	12	237	15	110	22				
CC1(C)C(Cc2ccccc2)C(=[N+]2CCCC2)C=CN1Cc1ccc(Cl)cc1 (racemic)	0	29		37900	30	1260	13	316	20	120	22				
CC1(C)C(Cc2ccc(C(F)(F)F)cc2)C(=[N+]2CCCC2)C=CN1Cc1ccccc1 (racemic)	0	24		85900	26	3300	11	268	15	320	22				
CC1(C)C(Cc2c(Cl)cccc2Cl)C(=[N+]2CCCC2)C=CN1Cc1ccccc1 (racemic)	7	26		15000	31	483	10	238	10	63	23				
O=C(O)c1cn(C2CC2)c2cc(N3CCNCC3)c(F)cc2c1=O [CIPROFLOXACIN]	0								0		14				
C[C@@H]1CC[C@H]2[C@@H](C)C(=O)O[C@@H]3O[C@@]4(C)CC[C@@H]1[C@]32OO4 [ARTEMISININ]			3.4									132000			
CC(C)(C)c1ccc(CC2C(=[N+]3CCCC3)C=CN(Cc3ccccc3)C2(C)C)cc1 (racemic)	0	24		940	30	31.3	15	47	22	20	22		100	100	
CC1(C)C(Cc2c(Cl)cccc2Cl)C(=[N+]2CCCC2)C=CN1Cc1ccc(Cl)cc1 (racemic)	12	33	6	4530	3.6	1260	15	87.1	20	52	21	755	100	100	
CC1(C)C(Cc2ccc(Br)cc2)C(=[N+]2CCCC2)C=CN1Cc1ccccc1 (racemic)	0	25		34500	7.7	4480	11	192	13	180	22				
CC1(C)C(Cc2ccccc2)C(=[N+]2CCCC2)C=CN1Cc1ccc([N+](=O)[O-])cc1 (racemic)	0	14		206000	89	2320	7	200	0	1030	12				
CC1(C)C(Cc2ccc(C(F)(F)F)cc2)C(=[N+]2CCCC2)C=CN1Cc1ccc(C(F)(F)F)cc1 (racemic)	7	31	3.1	26400	8.3	3180	15	62.9	25	420	22	8520	100	100	
Nc1nc(N)nc(Nc2ccc([As]3SCC(CO)S3)cc2)n1 (stereo not given) [MELARSOPROL]								2000							
CC1(C)C(Cc2ccccc2)C(=[N+]2CCCCC2)C=CN1Cc1ccccc1 (racemic)	0	28	24	24600	15	1640	10	558	0	44	22	1024			
CC(C)c1ccc(CC2C(=[N+]3CCCC3)C=CN(Cc3ccccc3)C2(C)C)cc1 (racemic)	6	29		2510	39	64.4	10	59.8	21	42	25		100	100	
COc1cc(Cc2cnc(N)nc2N)cc(OC)c1OC [TRIMETHOPRIM]	0								0		22				
CC1(C)C(Cc2ccc(Cl)cc2)C(=[N+]2CCCC2)C=CN1Cc1ccccc1 (racemic)	0	21		89500	17	5260	8	179	11	500	24				
CC1(C)C(Cc2ccc([N+](=O)[O-])cc2)C(=[N+]2CCCC2)C=CN1Cc1ccccc1 (racemic)	0	18		206000	43	4800	11	37.9	0	5450	15				
COc1cc([C@@H]2c3cc4c(cc3[C@H](O)[C@H]3COC(=O)[C@H]23)OCO4)cc(OC)c1OC [PODOFILOX]															12
CC1(C)C(Cc2ccccc2)C(=[N+]2CCCC2)C=CN1Cc1ccccc1 (racemic)	0	25	55	48800	32	1530	12	376	0	130	21	888			
